From patent publication US10179122B2, “Use of melatonin” (priority 2011, dated 2019)

Tested on: hangover symptoms after consumption of alcoholic beverages
Experiment: Hangover symptoms after alcohol consumption, blinded subjects given a sublingual melatonin strip before sleep
Assay type: in vivo, human
Procedure: Subjects were blind to all the experimental treatments.
A person was fed alcoholic beverages containing ethyl alcohol until the blood alcohol concentration reached 310 mg/dL at a time of 10 pm. Next, the person drank 1 l of water and immediately after that was administered a sublingual strip comprising 2.5 mg of melatonin in non-retard form. After that the person went to sleep. […] This experiment was repeated with 20 other persons with the same effect.
For comparison, the same experiment was conducted with administration of the sublingual strip without melatonin as a placebo. 19 out of 20 persons reported severe typical hangover symptoms like headaches.

Compound: COc1ccc2[nH]cc(CCNC(C)=O)c2c1 [melatonin]
- typical hangover symptoms after 8 h of physiologic sleep (one person, blood alcohol concentration 310 mg/dL at 10 pm, 1 l of water, then sublingual strip with 2.5 mg melatonin in non-retard form, assessed after 8 h sleep): did not suffer from any typical hangover symptoms
- typical hangover symptoms after 8 h of physiologic sleep (experiment repeated) (repeated with 20 other persons, same protocol (310 mg/dL, 1 l of water, sublingual strip with 2.5 mg melatonin in non-retard form, 8 h sleep)): same effect
